Results reported in patent publication US20230226214A1, “BIFUNCTIONAL BRIDGING COMPOSITIONS FOR VIRAL TRANSDUCTION” (Lycia Therapeutics, Inc., priority 2020, published 2023).

B1: Compound I-11d4: "matuzumab-Compound I-11 (d4)" conjugate tested for M6PR binding (conjugate)
heavy: QVQLVQSGAEVKKPGASVKVSCKASGYTFTSHWMHWVRQAPGQGLEWIGEFNPSNGRTNYNEKFKSKATMTVDTSTNTAYMELSSLRSEDTAVYYCASRDYDYAGRYFDYWGQGTLVTVSSASTKGPSVFPLAPSSKSTSGGTAALGCLVKDYFPEPVTVSWNSGALTSGVHTFPAVLQSSGLYSLSSVVTVPSSSLGTQTYICNVNHKPSNTKVDKKVEPKS
light: DIQMTQSPSSLSASVGDRVTITCSASSSVTYMYWYQQKPGKAPKLLIYDTSNLASGVPSRFSGSGSGTDYTFTISSLQPEDIATYYCQQWSSHIFTFGQGTKVEIKRTVAAPSVFIFPPSDEQLKSGTASVVCLLNNFYPREAKVQWKVDNALQSGNSQESVTEQDSKDSTYSLSSTLTLSKADYEKHKVYACEVTHQGLSSPVTKSFNRGE
modifications: left off: a dimerising Fc or GST

How the values were obtained:
human Jurkat cells = assay: Uptake of IgG2a-Alexa488 mediated by anti-IgG2a conjugates (flow cytometry); format: cell-based; conditions: 1 h and 24 h
Procedure: The anti-IgG2a conjugates were bound to IgG2a-Alexa488, as follows: equal molar ratios of anti-IgG2a and IgG2a-Alexa488 were added in tissue culture media for 30 minutes at room temperature. The resulting anti-IgG2a:IgG2a antibody-Alexa488 compositions were added to human Jurkat cells (100 k cells/50 ul per well, n=2), and Alexa488 fluorescence levels were measured (via Alexa488 measurement) at 1 hour and 24 hours by flow cytometry. Because Alexa488 accumulates in cells, this presents a way to measure total intracellular uptake by cells over time.

[1] = mice, intravenous, 10 μg/mouse; serum rIgG1 at 0.5-24 hours; compared with Compound I-7 conjugate
Procedure: A pharmacokinetic analysis of the rIgG1 (anti-IgG2a) antibody conjugates described in the previous example was performed in mice. In particular, C57B6 mice were intravenously administered each rIgG1 antibody conjugate at 10 μg/mouse (5 mice per group). Blood was collected at 0.5, 1, 2, 6, and 24 hours and serum rIgG1 was analyzed using an ELISA kit (Abcam) according to the manufacturer's instructions. Samples were run across 3 different plates with unconjugated rIgG1 controls (UNLB-anti-IgG2a rIgG1) included on all 3 plates.

[2] = target: T1, recombinant human CI-M6PR protein (Homo sapiens, UniProt P11717); assay: M6PR binding ELISA of matuzumab conjugates; conditions: antibody conjugates of the ligand-linkers
T1 construct: purchased R&D 6418-GR-050
Procedure: Binding affinity of matuzumab conjugated to ligand-linkers for M6PR was determined by ELISA using the following protocol: Nunc black solid bottom MaxiSorp plates were allowed to incubate overnight at 4° C. coated with 1 μg/mL of recombinant human CI-M6PR protein (R&D, 6418-GR-050) in 50 μL PBS. The next day, coating was decanted and plates were washed 3× with PBS. Wells were blocked with 350 μL of 3% BSA-PBS for 1 hour at room temperature. […] 50 μL of diluted conjugates were added to the plate and allowed to incubate at room temperature for 2 hours. After incubation, solutions in plate were decanted and washed with 350 μL of 0.05% PBS-Tween20 three times, drying the plate each wash on a clean paper towel. 50 μL of peroxidase AffiniPure Mouse Anti-Human IgG (Jackson Immuno, 209-035-088) diluted in 3% BSA-PBS to 0.2 μg/mL was added to the plate and allowed to incubate for 1 hour at room temperature in the dark. After incubation, solutions in plate were decanted and washed with 350 μL of 0.05% PBS-Tween20 3 times, drying the plate each wash on a clean paper towel. […] 50 μL of QuantaBlu solution was added to wells and allowed to incubate for 5-10 minutes at room temperature. After incubation, plates were read on a Perkin Elmer EnVision using photometric 340 and Umbelliferone 460 filter sets for excitation and emission, respectively. Data analysis and non-linear curve-fitting was performed using GraphPad Prism.

human HepG2 cells = assay: Transduction efficiency of AAV8 particle conjugates in HepG2 cells (GFP); format: cell-based; conditions: increasing MOI, 72 hrs, compared with unconjugated AAV8
Procedure: Transduction efficiency of AAV8 particle conjugates was also measured in human HepG2 cells and compared to that of an unconjugated AAV-CMV-GFP control (“AAV8 GFP-UNLB”). HepG2 cells were transduced with increasing multiplicity of infection (MOI) of unconjugated AAV8, AAV8 conjugated to Compound I-7 (ITX-16590), and AAV conjugated to Compound I-124 (ITX-22701) or different molar rations of AAV8 conjugated to Compound I-124 (ITX-22701).
In performing the experiments described above, 2V6·11 cells (Elab Science) in DMEM (Gibco) with 10% fetal bovine serum (Gibco) were seeded onto 96-well plates (Nunc) at a concentration of 20 k cells/well 24 hours prior to infection. Jurkat cells (ATCC) in RPMI (Gibco) with 10% fetal bovine serum (Gibco) were seeded onto 96-well plates (Nunc) 1 h prior to transduction. HepG2 cells (ATCC) in EMEM (Gibco) with 10% fetal bovine serum (Gibco) were seeded onto 96-well plates (Nunc) 24 hours prior to infection. […]
After the incubation period, the medium was aspirated, the cells were washed with PBS and analyzed for GFP expression via flow cytometry on BioRad ZES Cell Analyzer (BioRad) or analyzed for luciferase levels using a luciferase assay kit (Promega) following manufacture's protocol and using a luminometer.

T1 sequence (P11717 41-1365 limits assumed): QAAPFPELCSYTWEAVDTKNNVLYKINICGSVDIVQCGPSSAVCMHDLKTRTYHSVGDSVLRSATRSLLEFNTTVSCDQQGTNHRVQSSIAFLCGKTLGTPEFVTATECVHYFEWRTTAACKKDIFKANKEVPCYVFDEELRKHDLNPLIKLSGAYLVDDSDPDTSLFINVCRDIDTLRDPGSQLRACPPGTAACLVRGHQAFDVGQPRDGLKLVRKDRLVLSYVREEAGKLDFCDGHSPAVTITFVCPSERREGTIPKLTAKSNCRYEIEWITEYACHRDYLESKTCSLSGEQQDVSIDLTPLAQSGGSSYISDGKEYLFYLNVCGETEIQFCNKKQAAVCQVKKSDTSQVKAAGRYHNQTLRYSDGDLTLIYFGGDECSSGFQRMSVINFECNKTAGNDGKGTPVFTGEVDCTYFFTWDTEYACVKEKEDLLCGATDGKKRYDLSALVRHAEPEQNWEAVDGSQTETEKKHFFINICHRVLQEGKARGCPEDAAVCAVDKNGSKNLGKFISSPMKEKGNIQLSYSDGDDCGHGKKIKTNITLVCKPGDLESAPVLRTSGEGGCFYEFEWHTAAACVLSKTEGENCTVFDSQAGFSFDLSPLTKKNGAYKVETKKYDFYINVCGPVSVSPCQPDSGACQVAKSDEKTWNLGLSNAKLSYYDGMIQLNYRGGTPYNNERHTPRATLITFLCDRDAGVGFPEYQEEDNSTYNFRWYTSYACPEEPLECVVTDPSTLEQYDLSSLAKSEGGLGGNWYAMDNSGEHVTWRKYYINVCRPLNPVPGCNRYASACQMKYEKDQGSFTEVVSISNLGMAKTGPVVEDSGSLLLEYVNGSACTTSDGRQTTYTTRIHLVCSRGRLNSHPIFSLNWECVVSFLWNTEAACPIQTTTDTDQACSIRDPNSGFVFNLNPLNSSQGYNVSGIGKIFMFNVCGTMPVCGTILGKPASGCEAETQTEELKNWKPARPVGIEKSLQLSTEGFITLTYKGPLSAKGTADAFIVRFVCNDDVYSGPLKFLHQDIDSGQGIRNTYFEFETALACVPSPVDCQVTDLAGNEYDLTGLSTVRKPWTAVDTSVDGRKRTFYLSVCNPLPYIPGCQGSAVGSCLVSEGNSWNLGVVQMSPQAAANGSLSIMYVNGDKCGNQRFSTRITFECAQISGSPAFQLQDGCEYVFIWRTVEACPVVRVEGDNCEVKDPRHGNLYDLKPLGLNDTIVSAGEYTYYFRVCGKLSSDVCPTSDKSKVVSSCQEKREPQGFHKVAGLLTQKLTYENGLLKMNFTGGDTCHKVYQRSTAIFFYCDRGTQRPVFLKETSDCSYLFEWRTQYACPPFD

| Molecule | intracellular uptake (Alexa488 fluorescence) (human Jurkat cells) | half-life in serum [1] | binding affinity for M6PR [2] | transduction efficiency (percentage of GFP positive cells, MFI) (human HepG2 cells) |
| --- | --- | --- | --- | --- |
| O=C(CCOCCOCCOCCOCCOCCOCCOCCOCCn1cc(CCO[C@H]2O[C@H](CCP(=O)(O)O)[C@@H](O)[C@H](O)[C@@H]2O)nn1)Oc1c(F)c(F)c(F)c(F)c1F [Compound I-9] | sufficiently robust uptake | – | – | – |
| O=C(CCN1C(=O)C=CC1=O)NCCOCCOCCOCCn1cc(CCO[C@H]2O[C@H](CCP(=O)(O)O)[C@@H](O)[C@H](O)[C@@H]2O)nn1 [Compound I-10] | – | longer half-life | weaker binding affinity to M6PR compared to Compound I-7 | – |
| O=C(CCOCCn1cc(CCO[C@H]2O[C@H](CCP(=O)(O)O)[C@@H](O)[C@H](O)[C@@H]2O)nn1)Oc1c(F)c(F)c(F)c(F)c1F [Compound I-11] | sufficiently robust uptake | longer half-life | weaker binding affinity to M6PR compared to Compound I-7 | – |
| O=C(CCOCCOCCOCCN(CCOCCOCCOCCn1cc(CCO[C@H]2O[C@H](CCP(=O)(O)O)[C@@H](O)[C@H](O)[C@@H]2O)nn1)CCOCCOCCOCCn1cc(CCO[C@H]2O[C@H](CCP(=O)(O)O)[C@@H](O)[C@H](O)[C@@H]2O)nn1)Oc1c(F)c(F)c(F)c(F)c1F [Compound I-12] | sufficiently robust uptake | longer half-life | weaker binding affinity to M6PR compared to Compound I-7 | – |
| CC(=O)N[C@H]1[C@H](OCCCCC(=O)NCCCNC(=O)CCOCC(COCCC(=O)NCCCNC(=O)CCCCO[C@@H]2O[C@H](CO)[C@H](O)[C@H](O)[C@H]2NC(C)=O)(COCCC(=O)NCCCNC(=O)CCCCO[C@@H]2O[C@H](CO)[C@H](O)[C@H](O)[C@H]2NC(C)=O)NC(=O)CCCCCCCCCCC(=O)Oc2c(F)c(F)c(F)c(F)c2F)O[C@H](CO)[C@H](O)[C@@H]1O [Compound I-124] | – | – | – | greater transduction efficiency than unconjugated AAV8 |
| B1 | – | – | lowest | – |
